Test results: patent US12071414B2, “Apelin receptor agonists and methods of use thereof” (Sanford Burnham Prebys Medical Discovery Institute, priority 2015, dated 2024)

Molecular target: T1, human apelin receptor (APJ, AGTRL-one, APLNR) (Homo sapiens, UniProt P35414)
T1 construct: host or cells: Chinese hamster ovary cells, stably integrated receptor
T1 sequence (P35414 1-380): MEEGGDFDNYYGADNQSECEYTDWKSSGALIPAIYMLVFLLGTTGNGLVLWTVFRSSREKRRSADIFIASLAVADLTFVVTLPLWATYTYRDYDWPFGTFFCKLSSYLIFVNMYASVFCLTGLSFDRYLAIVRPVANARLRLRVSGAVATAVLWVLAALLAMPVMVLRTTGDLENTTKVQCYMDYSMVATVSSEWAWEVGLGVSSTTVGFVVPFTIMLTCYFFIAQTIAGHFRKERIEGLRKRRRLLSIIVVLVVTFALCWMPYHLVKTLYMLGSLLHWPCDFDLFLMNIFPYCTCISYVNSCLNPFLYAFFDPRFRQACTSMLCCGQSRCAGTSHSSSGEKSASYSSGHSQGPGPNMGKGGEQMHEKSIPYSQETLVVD
Test: cell-based cAMP TR-FRET assay of apelin receptor activation
Conditions: CHO cells expressing human APJ, forskolin-stimulated cAMP, 0.5 h incubation, 50% of control (apelin-13, 1 nM) response; read-out: Potency Category (EC50)
How it was run: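 CHO cells stably expressing human APJ were stimulated to raise cAMP, then incubated 0.5 h with compound (0.0-100 μM, ≤1% DMSO). Lysed cAMP measured by competitive TR-FRET immunoassay; efficacy as % of 1 nM apelin-13 response, potency from four-point logistic fit over ≥10 concentrations.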

Compound | EC50 [nM]
CCS(=O)(=O)c1ccc(C(CC2CC2)C(=O)Nc2nc3cc(OC)c(OC)cc3s2)cc1 (stereo not drawn) | > 500
CCS(=O)(=O)c1ccc(C(Oc2cccc3ccccc23)C(=O)Nc2nc3cc(OC)c(OC)cc3s2)cc1 (stereo not drawn) | > 500
CCS(=O)(=O)c1ccc(C(Oc2ccc(C#N)cc2)C(=O)Nc2nc3c4c(ccc3s2)OCCO4)cc1 (stereo not drawn) | > 500
COCCNC(=O)c1ccc(OC(C(=O)Nc2nc3cc(OC)c(OC)cc3s2)c2ccc(C#N)cc2)cc1 (stereo not drawn) | > 500
COc1cc2nc(NC(=O)C(Oc3ccc(C(=O)O)cc3)c3ccc(C#N)cc3)sc2cc1OC (stereo not drawn) | > 500
CCS(=O)(=O)c1ccc(C(OC)C(=O)Nc2nc3cc(OC)c(OC)cc3s2)cc1 (stereo not drawn) | > 500
CCS(=O)(=O)c1cccc(C(Oc2ccc(C#N)cc2)C(=O)Nc2nc3ccc(OCCOC)cc3s2)c1 (stereo not drawn) | > 500
CCS(=O)(=O)c1ccc(C(Oc2cccc(Cl)c2)C(=O)Nc2nc3cc(OC)c(OC)cc3s2)cc1 (stereo not drawn) | > 500
CCS(=O)(=O)c1ccc(C(Oc2ccc(C#N)cc2)C(=O)Nc2nc3ccc(N4CCOCC4)cc3s2)cc1 (stereo not drawn) | > 500
CCS(=O)(=O)c1ccc(C(OCCc2ccccc2)C(=O)Nc2nc3cc(OC)c(OC)cc3s2)cc1 (stereo not drawn) | > 500
COc1cc2nc(NC(=O)Cc3cccc(S(=O)(=O)C4CCCC4)c3)sc2cc1OC | > 500
COc1cc2nc(NC(=O)C(Oc3ccc(C#N)cc3)c3ccc(F)cc3)sc2cc1OC (stereo not drawn) | 200 to 500
CCS(=O)(=O)c1ccc(C(Oc2ccc(C#N)cc2)C(=O)Nc2nc3ncc(OC)cc3s2)cc1 (stereo not drawn) | > 500
COc1ccc(S(=O)(=O)c2cccc(C(Oc3ccc(C#N)cc3)C(=O)Nc3nc4cc(OC)c(OC)cc4s3)c2)cc1 (stereo not drawn) | > 500
CCS(=O)(=O)c1ccc(C(Oc2ccc(OC)cc2)C(=O)Nc2nc3c(OC)ccc(OC)c3s2)cc1 (stereo not drawn) | > 500
CCS(=O)(=O)c1ccc(C(Oc2ccc(C)cc2)C(=O)Nc2nc3cc(OC)c(OC)cc3s2)cc1 (stereo not drawn) | 200 to 500
CCS(=O)(=O)c1ccc(C(Oc2ccc(C#N)cc2)C(=O)Nc2nc3cc(OC)c(Cl)cc3s2)cc1 (stereo not drawn) | > 500
CCS(=O)(=O)c1ccc(C(Oc2ccc(C#N)cc2)C(=O)Nc2nc3cc4c(cc3s2)OCCO4)cc1 (stereo not drawn) | > 500
CCS(=O)(=O)c1ccc(C(Oc2ccc(I)cc2)C(=O)Nc2nc3cc(OC)c(OC)cc3s2)cc1 (stereo not drawn) | 200 to 500
CCS(=O)(=O)c1ccc(C(OCC(C)C)C(=O)Nc2nc3cc(OC)c(OC)cc3s2)cc1 (stereo not drawn) | > 500
CCS(=O)(=O)c1ccc(CC(=O)Nc2nc3cc(OC)c(OC)cc3s2)cc1 | 200 to 500
CCS(=O)(=O)c1ccc(C(Oc2ccccc2I)C(=O)Nc2nc3cc(OC)c(OC)cc3s2)cc1 (stereo not drawn) | 200 to 500
CCS(=O)(=O)c1ccc(C2(C(=O)Nc3nc4cc(OC)c(OC)cc4s3)CC2)cc1 | > 500
CCS(=O)(=O)c1ccc(C(Nc2ccc(C)cc2)C(=O)Nc2nc3cc(OC)c(OC)cc3s2)cc1 (stereo not drawn) | > 500
CCS(=O)(=O)c1ccc(C(Oc2ccc(Br)cc2)C(=O)Nc2nc3cc(OC)c(OC)cc3s2)cc1 (stereo not drawn) | 200 to 500
CCS(=O)(=O)c1ccc(C(OCc2ccc(C#N)cc2)C(=O)Nc2nc3cc(OC)c(OC)cc3s2)cc1 (stereo not drawn) | > 500
COc1cc2nc(NC(=O)C(Oc3ccc(O)cc3)c3ccc(C#N)cc3)sc2cc1OC (stereo not drawn) | > 500
CCS(=O)(=O)c1ccc(C(Oc2ccc(C#N)cc2)C(=O)Nc2cc3ccccc3[nH]2)cc1 (stereo not drawn) | > 500

Next, values leading:

EC50 [nM] | Compound
200 to 500 | COc1cc2nc(NC(=O)C(Oc3ccc(C#N)cc3)c3ccc(S(=O)(=O)c4ccc(Cl)cc4)cc3)sc2cc1OC (stereo not drawn)
100 to 200 | C#Cc1ccc(OC(C(=O)Nc2nc3cc(OC)c(OC)cc3s2)c2ccc(S(=O)(=O)CC)cc2)cc1 (stereo not drawn)
50 to 100 | CCS(=O)(=O)c1ccc(C(Oc2ccc(C#N)cc2)C(=O)Nc2nc3ccc4c(c3s2)OCCO4)cc1 (stereo not drawn)
< 50 | COc1cc2nc(NC(=O)C(Oc3ccc(C(=O)N(C)C)cc3)c3ccc(C#N)cc3)sc2cc1OC (stereo not drawn)
< 50 | CCOc1cc2nc(NC(=O)C(Oc3ccc(C#N)cc3)c3ccc(S(=O)(=O)CC)cc3)sc2cc1OC (stereo not drawn)
100 to 200 | CCS(=O)(=O)c1ccc(C(Oc2ccc(C#N)cc2C(F)(F)F)C(=O)Nc2nc3cc(OC)c(OC)cc3s2)cc1 (stereo not drawn)
200 to 500 | CCS(=O)(=O)c1ccc(C(Oc2ccc(C(C)C)cc2)C(=O)Nc2nc3cc(OC)c(OC)cc3s2)cc1 (stereo not drawn)
50 to 100 | CCS(=O)(=O)c1ccc(C(Oc2ccc(C#N)cc2)C(=O)Nc2nc3ccc(OC)c(OC)c3s2)cc1 (stereo not drawn)
< 50 | COc1cc2nc(NC(=O)C(Oc3ccc(C#N)cc3)c3cccc(S(=O)(=O)Cc4ccccc4)c3)sc2cc1OC (stereo not drawn)
200 to 500 | COc1cc2nc(NC(=O)C(Oc3ccc(C#N)cc3)c3cccc(S(=O)(=O)C(C)C)c3)sc2cc1OC (stereo not drawn)
< 50 | COc1cc2nc(NC(=O)C(Oc3ccc(C#N)cc3)c3ccc(S(=O)(=O)NCCN(C)C)cc3)sc2cc1OC (stereo not drawn)
50 to 100 | COc1cc2nc(NC(=O)C(Oc3ccc(C(=O)N4CCN(C)CC4)cc3)c3ccc(C#N)cc3)sc2cc1OC (stereo not drawn)
< 50 | COc1cc2nc(NC(=O)C(Oc3ccc(C#N)cc3)c3ccc(C(=O)N(C)C)cc3)sc2cc1OC (stereo not drawn)
< 50 | CCS(=O)(=O)c1ccc(C(Oc2ccc(C#N)c(F)c2)C(=O)Nc2nc3cc(OC)c(OC)cc3s2)cc1 (stereo not drawn)
200 to 500 | COc1cc2nc(NC(=O)C(Oc3ccc(C#N)cc3)c3ccc(C(=O)NCCN4CCOCC4)cc3)oc2cc1OC (stereo not drawn)
200 to 500 | CCS(=O)(=O)c1ccc(C(Oc2ccc(C3CCCC3)cc2)C(=O)Nc2nc3cc(OC)c(OC)cc3s2)cc1 (stereo not drawn)
50 to 100 | CCS(=O)(=O)c1ccc(C(Oc2ccc(C#N)cc2)C(=O)Nc2nc3ccc(C)c(OC)c3s2)cc1 (stereo not drawn)
100 to 200 | COc1cc2nc(NC(=O)C(Oc3ccc(C#N)cc3)c3ccc(S(=O)(=O)c4ccc(F)cc4)cc3)sc2cc1OC (stereo not drawn)
< 50 | CCOc1ccc(C(Oc2ccc(C#N)cc2)C(=O)Nc2nc3cc(OC)c(OC)cc3s2)cc1 (stereo not drawn)
< 50 | COc1cc2nc(NC(=O)C(Oc3ccc(C#N)cc3)c3ccc(C(=O)N(C)C)cc3)oc2cc1OC (stereo not drawn)
100 to 200 | CCS(=O)(=O)c1ccc([C@@H](Oc2ccc(C#N)cc2)C(=O)Nc2nc3cc(OC)c(OC)cc3s2)cc1

Test system: isolated rat heart
Test: not given
Conditions: read-out: EC50 of positive inotropic effect, in rats, infusion; cited from earlier work

Compound | EC50 [nM]
apelin-16 | ~0.033

Test system: heart
Test: not given
Conditions: read-out: EC50 of positive inotropic effect; in humans; cited from earlier work

Compound | EC50 [nM]
apelin-16 | 0.04 to 0.125
